# Measurements as given in patent US20230256120A1, “DIAGNOSTIC AGENT FOR PANCREATIC FUNCTION” (HAMAMATSU PHOTONICS K.K., priority 2020, published 2023).
# System: MC-I in the pancreas
# Experiment: PET measurement of [^18F]BCPP-BF accumulation in the pancreas of type II diabetes model rats
# Format: in vivo, rat
# Conditions: fatty rats versus lean rats; PET measurement method; after 5 weeks of age; FIG. 2(A)
# Text: Male Zucker Leprfa/Leprfa rats (hereinafter also referred to as “fatty rats”) that develop pathological conditions similar to type II diabetes of human adults and male Zucker Leprfa/+ rats (hereinafter also referred to as “lean rats”) as controls thereof were purchased from Charles River Laboratories Japan, Inc., and used for PET measurement at 5, 8, 16, and 26 weeks of age.
# The rats were anesthetized with isoflurane and fixed in a gantry of an animal PET camera (SHR-38000, manufactured by Hamamatsu Photonics K.K.). […] After the completion of the PET measurement, a region of interest was set on the pancreas identified from an accumulated PET image 40 to 60 minutes after the administration of D-[^11C]MT, and the amount of [^18F]BCPP-BF accumulated in the region of interest was calculated. Subsequently, the calculated accumulation amount was normalized by the amount of radioactivity administered and the body weight of each individual and defined as an amount (amount (SUV) of radioactivity administered) of [^18F]BCPP-BF accumulated in the pancreas.
# The pancreas was excised from each rat immediately after the completion of the PET measurement, and the weight of the excised pancreas was measured. Subsequently, the radioactivity of the excised pancreas was measured using a gamma counter (manufactured by PerkinElmer Inc., 1480 WIZARD). […]
structure (smiles),measurement,value
CC(C)(C)n1ncc(OCc2ccc(OCCCC[18F])nc2)c(Cl)c1=O [[^18F]BCPP-BF],uptake (SUV) of [^18F]BCPP-BF in the pancreas,decreased
